Activity calls are given as the source filed them. The rule behind the calls is not given here.
How the values were obtained:
Quadruplex DNA [1] = experiment: Stabilization of 5'-FAM/3'-TAMRA labeled human F21T G-quadruplex DNA assessed as change in melting temperature at 0.5 uM by FRET assay; format: nucleic-acid assay
Quadruplex DNA [2] = experiment: Stabilization of 5'-FAM/3'-TAMRA labeled c-KIT1 G-quadruplex DNA (unknown origin) assessed as change in melting temperature at 0.5 uM by FRET assay; format: nucleic-acid assay
Quadruplex DNA [3] = experiment: Stabilization of 5'-FAM/3'-TAMRA labeled c-KIT2 G-quadruplex DNA (unknown origin) assessed as change in melting temperature at 0.5 uM by FRET assay; format: nucleic-acid assay
Quadruplex DNA [4] = experiment: Stabilization of 5'-FAM/3'-TAMRA labeled BCL-2 promoter G-quadruplex DNA (unknown origin) assessed as change in melting temperature at 0.5 uM by FRET assay; format: nucleic-acid assay
dsDNA = experiment: Stabilization of 5'-FAM/3'-TAMRA labeled duplex DNA (unknown origin) assessed as change in melting temperature at 0.5 uM by FRET assay; format: nucleic-acid assay
[5] = Antiproliferative activity against imatinib-susceptible human GIST882 cells harboring c-KIT K642E mutant after 96 hrs by SRB assay; format: functional; conditions: GIST882, 96 h
[6] = Antiproliferative activity against imatinib-resistant human GIST48 cells harboring c-KIT V560D/D820A double mutant after 96 hrs by SRB assay; format: functional; conditions: GIST48, 96 h
[7] = Antiproliferative activity against imatinib-resistant human GIST62 cells after 96 hrs by SRB assay; format: functional
HGC-27 = experiment: Antiproliferative activity against human HGC27 cells after 96 hrs by SRB assay; format: functional, cell-based; conditions: HGC-27, 96 h
[8] = Stabilization of 5'-FAM/3'-TAMRA labeled 5'-UTR BCL-2 G-quadruplex RNA (unknown origin) assessed as change in melting temperature at 0.5 uM by FRET assay
[9] = Stabilization of 5'-FAM/3'-TAMRA labeled 5'-UTR BCL-2 G-quadruplex RNA (unknown origin) assessed as melting temperature at 0.5 uM in presence of KCl by FRET assay
[10] = Stabilization of 5'-FAM/3'-TAMRA labeled 5'-UTR BCL-2 G-quadruplex RNA (unknown origin) assessed as melting temperature at 0.5 uM in presence of NaCl by FRET assay
HT-29 = experiment: Antiproliferative activity against human HT-29 cells after 96 hrs by SRB assay; format: functional, cell-based; conditions: HT-29, 96 h
[11] = molecular target: Telomerase reverse transcriptase (Homo sapiens) (UniProt O14746); experiment: Inhibition of telomerase activity in imatinib-resistant human GIST48 cells harboring c-KIT V560D/D820A double mutant at 0.05 to 0.30 uM incubated for 1 week by Sybr green staining based TRAP-PCR method
[12] = molecular target: Telomerase reverse transcriptase (Homo sapiens) (UniProt O14746); experiment: Inhibition of telomerase activity in imatinib-susceptible human GIST882 cells harboring c-KIT K642E mutant at 0.5 uM incubated for 1 week by Sybr green staining based TRAP-PCR method
Quadruplex DNA [13] = experiment: Stabilization of c-KIT G-quadruplex DNA in imatinib-resistant human GIST48 cells harboring c-KIT V560D/D820A double mutant assessed as downregulation of c-KIT protein expression at 1 uM after 24 hrs by immunoblot analysis relative to control
Quadruplex DNA [14] = experiment: Stabilization of c-KIT G-quadruplex DNA in imatinib-resistant human GIST48 cells harboring c-KIT V560D/D820A double mutant assessed as downregulation of c-KIT protein expression at 1 uM after 1 week by immunoblot analysis relative to control
Quadruplex DNA [15] = experiment: Stabilization of c-KIT G-quadruplex DNA in imatinib-susceptible human GIST882 cells harboring c-KIT K642E mutant assessed as downregulation of c-KIT protein expression at 1 uM after 24 hrs by immunoblot analysis relative to control
Homo sapiens = organism: Homo sapiens; experiment: Stabilization of 5'-UTR BCL-2 G-quadruplex RNA in imatinib-resistant human GIST48 cells harboring c-KIT V560D/D820A double mutant at 0.3 uM after 1 week by immunoblot analysis relative to control
[16] = Stabilization of 5'-UTR BCL-2 G-quadruplex RNA (unknown origin) transfected in imatinib-susceptible human GIST882 cells harboring c-KIT K642E mutant assessed as decrease in RNA translation by dual luciferase reporter gene assay
[17] = Stabilization of 5'-UTR BCL-2 G-quadruplex RNA (unknown origin) transfected in imatinib-susceptible human GIST882 cells harboring c-KIT K642E mutant assessed as decrease in RNA translation at 10 uM by dual luciferase reporter gene assay relative to control; set-up: scale not given: the % may be the effect or the level left
MCF7 = experiment: Antiproliferative activity against human MCF7 cells after 96 hrs by SRB assay; format: functional, cell-based; conditions: MCF7, 96 h

Sequence of Telomerase reverse transcriptase (Homo sapiens) (O14746 whole entry): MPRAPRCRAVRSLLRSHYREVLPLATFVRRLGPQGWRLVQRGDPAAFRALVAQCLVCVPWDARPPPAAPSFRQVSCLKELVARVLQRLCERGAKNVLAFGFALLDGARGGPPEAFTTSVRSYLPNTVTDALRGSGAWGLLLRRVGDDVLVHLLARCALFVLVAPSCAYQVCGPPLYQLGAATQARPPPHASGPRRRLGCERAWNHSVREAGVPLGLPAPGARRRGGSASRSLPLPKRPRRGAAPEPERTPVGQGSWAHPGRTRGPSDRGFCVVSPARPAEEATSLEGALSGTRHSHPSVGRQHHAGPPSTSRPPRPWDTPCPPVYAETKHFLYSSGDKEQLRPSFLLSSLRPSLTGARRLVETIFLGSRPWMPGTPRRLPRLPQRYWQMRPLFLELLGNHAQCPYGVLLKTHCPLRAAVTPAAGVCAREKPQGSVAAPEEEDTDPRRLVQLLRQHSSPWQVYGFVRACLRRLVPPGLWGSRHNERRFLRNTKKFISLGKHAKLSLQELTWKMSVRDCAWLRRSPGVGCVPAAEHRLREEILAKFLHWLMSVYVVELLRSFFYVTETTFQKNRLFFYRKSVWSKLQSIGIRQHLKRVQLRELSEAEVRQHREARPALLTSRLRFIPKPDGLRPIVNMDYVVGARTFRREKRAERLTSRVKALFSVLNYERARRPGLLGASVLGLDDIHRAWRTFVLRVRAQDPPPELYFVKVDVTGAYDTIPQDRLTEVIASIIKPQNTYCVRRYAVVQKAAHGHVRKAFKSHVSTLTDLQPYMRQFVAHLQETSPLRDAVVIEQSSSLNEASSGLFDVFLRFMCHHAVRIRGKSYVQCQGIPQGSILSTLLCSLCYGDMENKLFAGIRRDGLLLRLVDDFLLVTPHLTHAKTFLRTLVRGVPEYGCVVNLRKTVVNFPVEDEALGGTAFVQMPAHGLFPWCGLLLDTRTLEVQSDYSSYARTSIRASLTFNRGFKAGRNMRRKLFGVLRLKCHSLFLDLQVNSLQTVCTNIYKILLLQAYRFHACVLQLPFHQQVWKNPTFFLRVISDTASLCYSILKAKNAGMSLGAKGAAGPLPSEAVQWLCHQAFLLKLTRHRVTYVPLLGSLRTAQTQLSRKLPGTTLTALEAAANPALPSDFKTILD

ΔTm (Quadruplex DNA [1]) [°C] | ΔTm (Quadruplex DNA [2]) [°C] | ΔTm (Quadruplex DNA [3]) [°C] | ΔTm (Quadruplex DNA [4]) [°C] | ΔTm (dsDNA) [°C] | ΔTm [8] [°C] | SMILES | IC50 [5] [nM] | IC50 [6] [nM] | IC50 [7] [nM] | IC50 (HGC-27) [nM] | also measured
21.6 | 6.5 | 18.5 | 17.9 | 7.2 |  | CN(C)c1ccc(Nc2c3ccc(NC(=O)CCN4CCCC4)cc3nc3cc(NC(=O)CCN4CCCC4)ccc23)cc1 | > 25000 | > 25000 | > 25000 | 2300 | 
29.7 | 11.2 | 29 | 27.6 | 3.5 | 10.7 | O=C1c2cc(NCCN3CCCC3)c3c4c(cc(NCCN5CCCC5)c(c24)C(=O)N1CCN1CCCC1)C(=O)N(CCN1CCCC1)C3=O | 1600 | 500 | 400 | 100 | Tm [9]: 91 °C; Tm [10]: 64.5 °C; IC50 (HT-29): 40 nM; inhibition [11]: inactive; inhibition [12]: Active; Activity (Quadruplex DNA [13]): 17%; Activity (Quadruplex DNA [14]): 37%; Activity (Quadruplex DNA [15]): 90%; Activity (Homo sapiens): 85%; Activity [16]: Dose-dependent effect; Activity [17]: 30%
0.2 | 0.2 | 0.2 | 0.1 | 0.1 | 0.1 | Cc1ccc(NC(=O)c2ccc(CN3CCN(C)CC3)cc2)cc1Nc1nccc(-c2cccnc2)n1 [IMATINIB] | 1700 | 19800 | > 25000 |  | IC50 (MCF7): 11300 nM
